Literature values, collected in patent publication US20140283166A1, “CREATION AND TRANSMISSION OF MEGALOCI” (Monsanto Technology, LLC, priority 2013, published 2014).
Read-outs that look alike come from different tables or passages of the source.

Test system: Arabidopsis

For `N.N.[Cl][Pt][Cl]` [cis-diamminedichloroplatinum], the “effect on genetic distance around centromeres” value (“effect” for short) (20 μg/ml) is given as “increase the genetic distance around centromeres”.

For `COc1cccc(C(N)=O)c1` [3-methoxybenzamide], the “effect” value (2 mM) is given as “increase the genetic distance around centromeres”.

In the case of `Nc1ncn([C@H]2C[C@H](O)[C@@H](CO)O2)c(=O)n1` [5-aza-2′-deoxycytidine], the “effect” value (25 or 100 mg/L) is listed as “increase the genetic distance around centromeres”.

In the case of `CCOS(C)(=O)=O` [methanesulfonic acid ethyl ester], the “effect” value (0.05%) is listed as “increase the genetic distance around centromeres”.

In the case of `Cc1c(N)nc([C@H](CC(N)=O)NC[C@H](N)C(N)=O)nc1C(=O)N[C@H](C(=O)N[C@H](C)[C@@H](O)[C@H](C)C(=O)N[C@H](C(=O)NCCC1=N[C@@H](c2nc(C(=O)NCCCCN=C(N)N)cs2)CS1)[C@@H](C)O)[C@@H](O[C@@H]1O[C@@H](CO)[C@@H](O)[C@H](O)[C@@H]1O[C@H]1O[C@H](CO)[C@@H](O)[C@H](OC(N)=O)[C@@H]1O)c1cnc[nH]1` [Zeocin], the “effect” value (1 μg/ml) is listed as “increase the genetic distance around centromeres”.

In the case of `CCN(N=O)C(N)=O` [N-nitroso-N-ethylurea], the “effect” value (100 μM) is given as “increase the genetic distance around centromeres”.

For `CC(/C=C/C(=O)NO)=C\[C@@H](C)C(=O)c1ccc(N(C)C)cc1` [trichostatin A], the “effect” value (10 μM) is given as “increase the genetic distance around centromeres”.

For `COS(C)(=O)=O` [methanesulfonic acid methyl ester], the “effect” value (75 parts per million) is listed as “increase the genetic distance around centromeres”.

For `CCCC(=O)O` [n-butyric acid], the “effect” value (20 μM) is given as “increase the genetic distance around centromeres”.

In the case of `CO[C@@]12[C@H](COC(N)=O)C3=C(C(=O)C(C)=C(N)C3=O)N1C[C@@H]1N[C@@H]12` [mitomycin C], the “effect” value (10 mg/L) is listed as “increase the genetic distance around centromeres”.
